The experiment concerns MDA-MB-361 tumor xenografts. The experiment in a line: Tumor growth in HER2-overexpressing MDA-MB-361 breast cancer xenograft model. It is filed as in vivo, nude mice. Conditions: 20 μg DNA; paclitaxel 15 mg/kg i.p.; compared with LPD-Luciferase.

Experimental: Female nude mice were inoculated with HER2-overexpressing MDA-MB-361 cells in the mammary fat pad. After the formation of 8-10 tumors per group (5 animals per group, -2 tumors per animal), mice were given one of the following treatments: naked E1A DNA (20 μg DNA, light circles), vehicle only (small squares), LPD-luciferase (20 μg DNA, triangles), LPD-E1A (20 μg DNA, dark circles), paclitaxel (15 mg/kg, light triangles), or LPD-E1A (20 μg DNA) plus paclitaxel (15 mg/kg) (large squares). The tumor growth ratio was determined by comparing the size of the treated tumors with the size of the original tumor before any treatment. The error bars indicate s.e.m.

For `CC(=O)O[C@H]1C(=O)[C@@]2(C)[C@H]([C@H](OC(=O)c3ccccc3)[C@]3(O)C[C@H](OC(=O)[C@H](O)[C@@H](NC(=O)c4ccccc4)c4ccccc4)C(C)=C1C3(C)C)[C@]1(OC(C)=O)CO[C@@H]1C[C@@H]2O` [paclitaxel], the tumor growth result is listed as “decreased tumor growth”.

Values taken from US20090233848A1, “Pea15 as a Tumor Suppressor Gene” (priority 2004, published 2009).
